Laboratory results as given in patent publication US11752125B2, “Anti-neuroinflammatory and protective compounds in Achillea fragrantissima” (THE STATE OF ISRAEL MINISTRY OF AGRICULTURE & RURAL …, priority 2013, dated 2023).

How the values were obtained:
[1] = system: astrocytes; experiment: H2O2-induced intracellular ROS levels in astrocytes (DCF-DA); assay type: cell-based, rat; settings: for ability to reduce H2O2-induced ROS compared among TTF, quercetin and memantine: concentrations higher than 16 μM, ROS after 1 h, p>0.05
Description: Intracellular ROS levels were detected using the non-fluorescent cell permeating compound, 2′7′-dichlorofluorescein diacetate (DCF-DA). DCF-DA is hydrolyzed by intracellular esterases and then oxidized by ROS to a fluorescent compound 2′-7′-DCF. Astrocytes were plated onto 24 wells plates (300,000 cells/well) and treated with DCF-DA (20 μM) for 30 min at 37° C. Following incubation with DCF-DA, cultures were rinsed twice with PBS and then re-suspended in DMEM containing 10% FBS, 8.4 mM HEPES, 2 mM glutamine, 100 U/ml penicillin, and 100 μg/mL streptomycin. ROS levels (fluorescence) at time zero were measured in a plate reader with excitation at 485 nm and emission at 520 nm. Astrocytes were then treated with TTF for 2 h before the addition of H2O2 and ROS levels (fluorescence) were measured in a plate reader with excitation at 485 nm and emission at 520 nm every hour for 4 h.
1. Produce a primary culture of rat brain glial cells according to the method described in “Protective effects of the essential oil of salvia fruticosa and its constituents on astrocytic susceptibility to hydrogen peroxide-induced cell death”. 2009. A. Elmann, S. Mordechay, M. Rindner, O. Larkov, M. Elkabetz, U. Ravid. Journal of agricultural and food chemistry. 57(15):6636-41; 2. Separate astrocytes from other cell types in the culture according to the method described in “Protective effects of the essential oil of salvia fruticosa and its constituents on astrocytic susceptibility to hydrogen peroxide-induced cell death”. 2009. A. Elmann, S. Mordechay, M. Rindner, O. Larkov, M. Elkabetz, U. Ravid. Journal of agricultural and food chemistry. 57(15):6636-41; 3. Plate astrocytes (300,000 cells/0.5 ml/well of 24 wells plate) and incubate (37° C., 5% CO2) for 24 hr as described in: Elmann, A., et al., (2011). Extract of Achillea fragrantissima downregulates ROS production and protects astrocytes from oxidative-stress-induced cell death. In: “Neurodegenerative Diseases—Processes, Prevention, Protection and Monitoring”, ISBN 978-953-307-485-6, (Raymond Chuen-Chung Chang, ed). […] Read fluorescence of “time 0” at 485 nm (Extinction) and 528 nm (Emmision). […] Read fluorescence at 1, 2, 3, 4 hr after the addition of H2O2 (Ex: 485 nm and Em: 528 nm). […]
Astrocytes were pre-loaded with DCF-DA for 30 min and washed. […] ROS levels in astrocytes were measured 1 h and 4 h after the application of H2O2. […] H2O2 was added to the culture and the fluorescence intensity representing ROS levels was measured after 1 h. […]
Preloaded astrocytes were then preincubated for 2 h with various concentrations of achillolide A or memantine. H2O2(175 μM) was added and the fluorescence intensity was measured […]. […]

[2] = system: NO; experiment: NO (nitrite) production by LPS-activated microglial cells (Griess); assay type: cell-based, rat; settings: Rattus norvegicus; 40 μM (highest concentration tested); LPS 4.5 ng/mL, 20 h; read-out: inhibition of NO secretion
Description: Cultures of primary rat microglial cells were prepared from cerebral cortices of 1-2 day-old neonatal Wistar rats as described. Microglial cells were seeded at 24-well plastic plates at 1×10^5/well in RPMI-1640 containing 2% FBS, 2 mM glutamine, 100 U/mL penicillin, 100 µg/mL streptomycin, 1 mM sodium pyruvate, and 50 μM β-mercaptoethanol. Cells were cultured for 36 h before treatments. The research was conducted in accordance with the NIH guide for the care and use of laboratory animals, and was approved by the Institutional Animal Care and Use Committee of The Volcani Center, Agricultural Research Organization (IL-135/07, approval date Apr. 11, 2007). All efforts were made to minimize animal suffering, and to reduce the number of animals used.
For NO measurements, 1×10^5 microglial cells/well were plated in a 24-well tissue culture plate. Cells were stimulated with LPS (4.5 ng/mL) and concomitantly treated with achillolide A or a reference drug. NO levels in the culture medium were estimated with Griess reagent.
3. Activate microglial cells with lipopolysaccharide (LPS, 4.5 nanograms/mL);
In FIG. 21 A, microglial cells were treated with different concentrations of achillolide A, dexamethasone or memantine (as reference drugs) and were concomitantly activated by LPS (4.5 ng/mL) for 20 h. Cell conditioned supernatants were collected, and the levels of NO were measured using Griess reaction. Cytotoxicity was measured using the LDH method (FIG. 21B). Values represent the mean±SEM (n=12 for each treatment). ** p<0.01; ***p<0.001 relative to cells that were treated to LPS only.

| SMILES | effect on H2O2-induced intracellular ROS levels ([1]; 8 μM, H2O2 175 μM, ROS measured 1 h and 4 h after H2O2) | ability to reduce H2O2-induced ROS compared among TTF, quercetin and memantine ([1]; 2 h preincubation) | inhibition at 40 µM [2] [%] | effect on H2O2-induced ROS production ([1]; 2 h preincubation, H2O2 175 μM, fluorescence 20 h later) |
| --- | --- | --- | --- | --- |
| COc1cc(-c2oc3cc(OC)c(OC)c(O)c3c(=O)c2O)ccc1O [TTF, 3,5,4′-trihydroxy-6,7,3′-trimethoxyflavone] | inhibited the H2O2-induced elevation of intracellular ROS | – | – | – |
| O=c1c(O)c(-c2ccc(O)c(O)c2)oc2cc(O)cc(O)c12 [quercetin, 3,3′,4′,5,7-Pentahydroxyflavone, reference compound] | – | no significant difference | – | – |
| CC12CC3CC(C)(C1)CC(N)(C3)C2 [memantine, reference compound] | – | no significant difference | 64 | – |
| C=C1CCC2=C(CO)C(=O)O[C@H]2/C=C(\C)[C@H](OC(C)=O)CC1=O [achillolide A] | – | – | 66 | attenuates |
